Here are results for 2 compounds from patent publication US11879132B2, “Plants having increased tolerance to herbicides” (BASF AGRO B.V., priority 2016, dated 2024).

Test [1] concerns empty vector-transformed leaf discs. As to the kind of experiment: PSII yield inhibition in tobacco leaf discs (imaging PAM chlorophyll fluorescence). The test is classed as cell-based. Particulars: Nicotiana benthamiana, read-out: IC50 of PSII yield inhibition. From the text: Transient expression of mutated PPO sequences as wildtype or with respective mutations were done as described previously (Voinnet O., et al., 2003, The Plant Journal 33, 949-956). In brief, cloning of GOI and Agrobacterium transformation (strain: GV2260) were done as described in EXAMPLE 5. Young leaves of Nicotiana benthamiana were infiltrated with transgenic Agrobacterium suspension (OD^600 of 1.0) harboring binary vector constructs containing a GO/gene controlled by a promoter and terminator sequence. 48 h to 72 h after infiltration punches of leave discs (0.75 cm in diameter) were transferred to 6-well plates with medium (half strength Linsmaier-Skoog (Linsmaier and Skoog (1965) Physiol. Plant. 18: 100-127) nutrient solution or water) containing herbicide of interest in different concentrations. […]
Leaf discs, generated as described in EXAMPLE 14, expressing a protein encoded by GOI, were subjected to analysis on improved tolerance to herbicide treatment. For analysis of herbicide damage, chlorophyll fluorescence were identified as indicative marker (Dayan and Zaccaro (2012) Pest. Biochem. Physiol. 102: 189-197). […] PSII yield were measured as per manufacturer instructions.
Tolerance factors were calculated based on IC50 values of PSII yield inhibition of transformed versus empty vector-transformed leaf discs.

Test [2] relates to non-transgenic (MC-24) Arabidopsis. The test is described as follows: Germination assay, ARBTH germinating in medium containing selection agent (48-well plates). The test is classed as in vivo, Arabidopsis thaliana. The method, then: Transgenic Arabidopsis thaliana plants are assayed for improved tolerance to saflufenacil, 1,5-dimethyl-6-thioxo-3-(2,2,7-trifluoro-3-oxo-4-(prop-2-ynyl)-3,4-dihydro-2H-benzo[b][1,4]oxazin-6-yl)-1,3,5-triazinane-2,4-dione (CAS 1258836-72-4/trifludimoxazin), flumioxazin, butafenacil, acifluorfen, lactofen, bifenox, sulfentrazone, and photosynthesis inhibitor diuron as negative control in 48-well plates. Therefore, T2 seeds are surface sterilized by stirring for 5 min in ethanol+water (70+30 by volume), rinsing one time with ethanol+water (70+30 by volume) and two times with sterile, deionized water. […] Growth inhibition is evaluated seven to ten days after seeding in comparison to wild type plants.
Transgenic Arabidopsis thaliana plants are assayed for improved tolerance to saflufenacil, 1,5-dimethyl-6-thioxo-3-(2,2,7-trifluoro-3-oxo-4-(prop-2-ynyl)-3,4-dihydro-2H-benzo[b][1,4]oxazin-6-yl)-1,3,5-triazinane-2,4-dione (CAS 1258836-72-4/trifludimoxazin), flumioxazin, butafenacil, acifluorfen, lactofen, bifenox, sulfentrazone, and photosynthesis inhibitor diuron as negative control, in 48-well plates. […] Growth inhibition was evaluated seven to ten days after seeding in comparison to wild type plants. […]

Test [3] relates to transgenic Arabidopsis AMATU_PPO2_G211A_F420M. As to the kind of experiment: Germination assay, transgenic ARBTH germinating in medium containing selection agent (48-well plates). Format: in vivo, Arabidopsis thaliana. Particulars: for IC50: Arabidopsis thaliana. As for the experimental part:
(§1) Transgenic Arabidopsis thaliana plants are assayed for improved tolerance to saflufenacil, 1,5-dimethyl-6-thioxo-3-(2,2,7-trifluoro-3-oxo-4-(prop-2-ynyl)-3,4-dihydro-2H-benzo[b][1,4]oxazin-6-yl)-1,3,5-triazinane-2,4-dione (CAS 1258836-72-4/trifludimoxazin), flumioxazin, butafenacil, acifluorfen, lactofen, bifenox, sulfentrazone, and photosynthesis inhibitor diuron as negative control in 48-well plates. Therefore, T2 seeds are surface sterilized by stirring for 5 min in ethanol+water (70+30 by volume), rinsing one time with ethanol+water (70+30 by volume) and two times with sterile, deionized water. The seeds are resuspended in 0.1% agar dissolved in water (w/v) Four to five seeds per well are plated on solid nutrient medium consisting of half-strength murashige skoog nutrient solution, pH 5.8 (Murashige and Skoog (1962) Physiologia Plantarum 15: 473-497). Compounds are dissolved in dimethylsulfoxid (DMSO) and added to the medium prior solidification (final DMSO concentration 0.1%). Multi well plates are incubated in a growth chamber at 22° C., 75% relative humidity and 110 μmol Phot*m^−2*s^−1 with 14: 10 h light: dark photoperiod. Growth inhibition is evaluated seven to ten days after seeding in comparison to wild type plants.
as §1, with “negative control,” for “negative control”, “inhibition was” for “inhibition is”, “plants. Additionally, transgenic T1 Arabidopsis plants were tested for improved tolerance to herbicides in greenhouse studies with the following herbicides: saflufenacil, 1,5-dimethyl-6-thioxo-3-(2,2,7-trifluoro-3-oxo-4-(prop-2-ynyl)-3,4-dihydro-2H-benzo[b][1,4]oxazin-6-yl)-1,3,5-triazinane-2,4-dione (CAS 1258836-72-4/trifludimoxazin), flumioxazin, butafenacil, acifluorfen, lactofen, bifenox, sulfentrazone, and photosynthesis inhibitor diuron as negative control.” for “plants.”

Test [4] deals with transgenic Arabidopsis AMATU_PPO2_wild_type. Described as above. Format: in vivo, Arabidopsis thaliana. The method, then: as §1
as §1, with “negative control,” for “negative control”, “inhibition was” for “inhibition is”, “plants. Additionally, transgenic T1 Arabidopsis plants were tested for improved tolerance to herbicides in greenhouse studies with the following herbicides: saflufenacil, 1,5-dimethyl-6-thioxo-3-(2,2,7-trifluoro-3-oxo-4-(prop-2-ynyl)-3,4-dihydro-2H-benzo[b][1,4]oxazin-6-yl)-1,3,5-triazinane-2,4-dione (CAS 1258836-72-4/trifludimoxazin), flumioxazin, butafenacil, acifluorfen, lactofen, bifenox, sulfentrazone, and photosynthesis inhibitor diuron as negative control.” for “plants.”

SMILES strings stand for the structures. Where two headings read alike, the source gives them in different places.

The term IC50 denotes the point on the concentration scale where inhibition reaches its midpoint. Consider `C#CCN1C(=O)C(F)(F)Oc2cc(F)c(-n3c(=O)n(C)c(=S)n(C)c3=O)cc21` [1,5-dimethyl-6-thioxo-3-(2,2,7-trifluoro-3-oxo-4-(prop-2-ynyl)-3,4-dihydro-2H-benzo[b][1,4]oxazin-6-yl)-1,3,5-triazinane-2,4-dione], for which, in test [1] (empty vector-transformed leaf discs, treated for 48 h), the IC50 was 0.011 µM.
With `CC(C)N(C)S(=O)(=O)NC(=O)c1cc(-n2c(=O)cc(C(F)(F)F)n(C)c2=O)c(F)cc1Cl` [Saflufenacil], the “Tolerance Factor (non transgeneic = 1.0)” value in test [2] is recorded as 1; in test [3] (Event D), 1000; in test [3] (Event M) it was 1000; in test [3] (Event P), 300; in test [3] (Event Q) it was 300; in test [3] (Event R), 300. Also, the “Tolerance Factor (non transgeneic = 1.0)” value in test [4] worked out at 10. Also, the IC50 in test [2] (Arabidopsis thaliana) stood at 0.025 µM; in test [3] (Event D) it was 25 µM; in test [3] (Event M), 25 µM; in test [3] (Event P), 7.5 µM; in test [3] (Event Q), 7.5 µM; in test [3] (Event R), 7.5 µM. Besides, the results for the IC50 in test [4] (Arabidopsis thaliana) and in test [1] (48 h) were 0.106 µM and 0.11 µM, respectively.
